Results from US20230285389A1, “USE OF CSF-1R KINASE INHIBITOR” (Shanghai Runshi Medical Technology Co., Ltd, priority 2020, published 2023).

What was measured:
[1] = system: CSF-1-induced bone marrow-derived macrophages (BMDM); assay: CSF-1-induced murine-derived macrophage (BMDM) survival (CCK-8); format: cell-based, BALB/c mice; conditions: Mus musculus, 168 h, read-out: IC50 inhibition of cell survival, BMDM (CSF-1)
Method: BALB/c mice (female, 6 weeks old, healthy) were sacrificed. Bone marrow cells were taken from their femurs and tibia, and seeded into a 96-well culture plate at appropriate densities (90 µL per well) after erythrobiasis treatment. 100 ng/mL of CSF-1 factor was added to each well to induce macrophages (Bone marrow-derived macrophages, BMDM), and compounds at various concentrations were added and the plate was allowed for incubation for 7 days. A solvent control group (negative control) was set. After 7 day-exposure of the cells to the compounds, 10 µL of CCK-8 reagent was added to each well. The culture plate was placed in an incubator at 37° C. for 2-4 h, and then was read with a full-wavelength microplate reader setting at the wavelength of 450 nm.

[2] = system: CSF-1-induced human macrophages (PBMC-derived CD14+ monocytes); assay: Survival of CSF-1-induced human macrophages from PBMC (CCK-8); format: cell-based; conditions: Homo sapiens, 168 h, read-out: IC50 inhibition of cell survival, PBMC (CSF-1)
Method: Cryopreserved human-derived peripheral blood (peripheral blood from healthy donors) mononuclear cells (PBMCs) were taken out of liquid nitrogen for recovery. After recovery, the cells were re-suspended at 50 million/mL with the running buffer and DNAase I was added at a final concentration of 100 µg/mL and the plate was allowed for incubation for 15 min at room temperature. After centrifugation at 300 g for 5 min, the supernatant was discarded. The pellet was re-suspended at 50 million cells/mL with the running buffer, and the suspension was filtered through a 70 µM filter screen into a flow tube. The cells were sorted by using CD14+ monocyte negative selection beads sorting kit from […] company. According to the manufacture’s instructions, the specific experimental procedures were as follows.
After cells were re-suspended at 50 million cells/mL, 50 µL of the cocktail was added to each one mL of samples. The samples were incubated at room temperature for 5 min. The magnetic beads were vortexed for 30 sec, and added to the samples. The samples were incubated for further 5 min. The sample volumes were made up to 2.5 mL. The samples were placed on a magnetic frame ([…], #18000) for 2.5 min. […] The plate was placed in an incubator at 37° C. for 2-4 h, and then was read with an adjustable wavelength microplate reader setting at a wavelength of 450 nm.

[3] = system: MC38 subcutaneous xenograft; assay: Immune cell subpopulation scan in tumor tissue of MC38 xenograft model; format: in vivo, mouse
Method: MC38 cells in good condition were re-suspended to 25 million cells/mL. 200 µL of cell suspension was inoculated subcutaneously in the right armpit of each mouse. When the tumor cells formed subcutaneous xenograft in the mice and grew to an average volume of approximately 100 mm^3, the mice were randomly assigned to the dosing group and the control group. The test compounds were prepared at the desired concentrations and corresponding equal amount of solvent was used as a solvent control. The drugs were administrated orally, and administrated once per day for 24 consecutive days.
During the dosing period, the xenograft volumes of the mice and the weights of the mice were measured every 2-4 days. When the MC38 subcutaneous xenograft from the solvent control group of grew to 700-800 mm^3, the experiment was stopped. Fresh tumors removed from the mice were sheared with scissors into fragments no more than 2 mm^3. The digestive enzyme was prepared according to the instructions of Tumor Dissociation Kit. The tumor tissue mass was re-suspended with 2.5 mL of prepared enzyme solution, and was placed into a gentleMACS™ Dissociator instrument for dissociating the tumor with a selected program. After completion of dissociation, the suspension was filtered with a 70 µM filter screen to obtain a cell suspension. The cell suspension was lysed with an erythrocyte lysing agent for 10 min, centrifuged at 300 g for 5 min, and re-suspended with PBS. Desired amount of cells were taken out after cell counting. The cells were first washed twice with PBS. After washing, each sample was re-suspended with 100 µL of PBS and 0.5 µL of the fluorescent antibody prepared according to the manufacturer’s instructions to distinguish dead and live cells was added. The samples were stained in the dark at 4° C. for 30 min. After 30 min, the samples were washed twice with 1 mL of the running buffer and the tubes were centrifuged at 300 g for 5 min at 4° C. The blocking antibody diluent was prepared by adding 2 µL of blocking antibody TruStain fcX™ (anti-mouse CD16/32) per 100 µL running buffer and was added on the basis of the 100 µL system of each sample. After blocking for 10 min, according to the manufacturer’s instructions, the fluorescent antibody corresponding to the surface protein was added to the samples, and the reactant was allowed for incubation at 4° C. for 30 min. At this step, a single staining control and an FMO control were set. Then, the samples were washed twice with 1 mL of the running buffer, and centrifuged at 300 g for 5 min at 4° C. each time.
If only surface proteins were to be examined, after centrifugation, the samples were re-suspended with 300 µL of PBS and immediately input into machines, or the samples were fixed with 4% paraformaldehyde for 15 min, and centrifuged at 500 g for 7 min. The supernatants were discarded and the pellets were re-suspended with PBS and stored for further machine analysis.
If intracellular factors were to be examined as well, when the supernatants were discarded after centrifugation, 100 µL of re-suspended samples were retained. IC fixation solution in Intracellular Fixation & Permeabilization Buffer Set was added to each sample based on the 100 µL volume. The samples were placed at 4° C. for fixation for 30 min. After the fixation was completed, the samples were centrifuged at 500 g for 7 min. 10×Permeabilization Buffer was prepared into 1×membrane destructive solution with triple distilled water. After centrifugation, 2 mL of 1×membrane destructive solution was added to each sample to re-suspend the samples, and the samples were centrifuged at 500 g for 7 min. The process was repeated twice. 1×membrane destructive solution was used to prepare the intracellular fluorescent antibody as recommended in the instructions for antibody. The cells were re-suspended in a system of 100 µL per well, and placed at 4° C. to stain for 30 min. At this step, a single staining control and an FMO control were set. […]

[4] = each dose group, oral once per day

CNC(=O)c1cccc2cc(Oc3ccnc(NC(=O)c4ccc(N5C[C@@H](C)N[C@@H](C)C5)cc4)c3)ccc12 [Compound I]
IC50 [1]: 0.0102 ± 0.0008 µM
IC50 [2]: 0.0305 ± 0.0051 µM
infiltration of Granzyme B+CD8+ T cells vs solvent control ([3]; 10 mg/kg group): significantly increased
infiltration of CD206+ M2-biased macrophages in TAMs [3, 4]: further down-regulated
infiltration of TAMs in tumor tissue vs solvent control [3, 4]: significantly reduced
infiltration of CD8+ T cells vs solvent control ([3]; oral once per day): no significant change
infiltration of IFNγ+CD8+ T cells vs solvent control ([3]; oral once per day): no significant change
infiltration of Treg cells ([3]; oral once per day): significantly reduced
